Measurements: patent US8048927B2 (Besins Healthcare Luxembourg, priority 2004, dated 2011)

How the values were obtained:
[1] = percutaneous [^3H]-4-hydroxy tamoxifen delivery in breast cancer patients (Example 1)
Description: The patients received [^3H]-labeled drug applied directly on the affected breasts at specified intervals ranging from 12 hours to 7 days before surgery to excise diseased tissue. Breast tissue from three regions: the tumor, tissue immediately surrounding the tumor, and normal tissue, was excised and immediately frozen in liquid nitrogen. Additionally, plasma and urine samples were obtained at scheduled intervals and frozen until analysis.

[2] = Group 1: PO tamoxifen 20 mg/day (10 mg b.i.d.), 3-4 weeks; cited from earlier work
[3] = test system: p53(−) normal human mammary epithelial cells; conditions: cited from earlier work
[4] = Group 2 (0.5 mg/day gel): seventh day of treatment; Group 1 (oral tamoxifen): fifth day; cited from earlier work
rat liver = conditions: cited from earlier work
benign breast disease = conditions: cited from earlier work
estrone sulphatase = molecular target: T1, estrone sulphatase (Homo sapiens, UniProt P08842); conditions: mammary cancer cell lines; cited from earlier work
T1 construct: estrone sulphatase activity in mammary cancer cell lines; endogenous in cells
T1 sequence (P08842 22-583): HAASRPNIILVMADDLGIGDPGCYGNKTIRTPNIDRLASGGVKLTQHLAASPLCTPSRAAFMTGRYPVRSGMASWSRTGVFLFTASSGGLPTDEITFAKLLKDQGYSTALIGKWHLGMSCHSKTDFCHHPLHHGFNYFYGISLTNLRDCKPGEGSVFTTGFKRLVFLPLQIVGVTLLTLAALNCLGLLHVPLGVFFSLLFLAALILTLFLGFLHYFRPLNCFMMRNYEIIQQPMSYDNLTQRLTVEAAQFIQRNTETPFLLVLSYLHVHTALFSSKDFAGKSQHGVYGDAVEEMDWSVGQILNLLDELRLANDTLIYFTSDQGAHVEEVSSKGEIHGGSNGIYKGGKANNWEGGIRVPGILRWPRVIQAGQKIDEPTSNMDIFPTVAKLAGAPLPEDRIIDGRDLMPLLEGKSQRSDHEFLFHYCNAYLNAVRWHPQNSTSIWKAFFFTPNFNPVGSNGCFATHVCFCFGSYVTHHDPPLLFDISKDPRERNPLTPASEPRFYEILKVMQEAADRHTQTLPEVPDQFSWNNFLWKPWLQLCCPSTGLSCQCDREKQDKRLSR

SMILES | time of plateau of radioactivity in blood ([1]; percutaneous application) | Normal Tissue concentration of 4-hydroxy tamoxifen, Mean ± SD [2] | Plasma concentration of 4-hydroxy tamoxifen, Day Pre-Surgery, Mean ± SD [2] | Plasma concentration of 4-hydroxy tamoxifen, Day of Surgery, Mean ± SD [2] | Tumor concentration of 4-hydroxy tamoxifen, Mean ± SD [2] | initiation of apoptosis [3] | side effects reported by one person of the group [4] | retention in the breast ([1]; percutaneous application to the breast) | rat liver carcinogenicity (rat liver) | decrease of risk, adenosis (benign breast disease; in vivo) | decrease of risk, cyst (benign breast disease; in vivo) | decrease of risk, duct ectasia (benign breast disease; in vivo) | decrease of risk, fibrocystic disease (benign breast disease; in vivo) | decrease of risk, hyperplasia (benign breast disease; in vivo) | decrease of risk, metaplasia (benign breast disease; in vivo) | reduction of the risk of developing benign breast disease, overall (benign breast disease; in vivo) | reduction of the need for breast biopsies (benign breast disease; women under 50) | inhibitory effect on estrone sulphatase activity (estrone sulphatase)
CC/C(=C(\c1ccccc1)c1ccc(OCCN(C)C)cc1)c1ccccc1 [[^3H]-tamoxifen] | 2 days | – | – | – | – | – | – | – | – | – | – | – | – | – | – | – | – | –
CC/C(=C(\c1ccccc1)c1ccc(OCCN(C)C)cc1)c1ccccc1 [tamoxifen] | – | 10215 ± 2151 pg/g | 2.326 ± 0.585 ng/mL | 2.317 ± 1.098 ng/mL | 12453 ± 3751 pg/g | initiates apoptosis | hot flashes and mild vaginitis | shorter and far weaker | potent rat liver carcinogen | 41% | 34% | 28% | 33% | 40% | 49% | 28% | 41% | little or no effect
